Key:
[1] = Half life in Sprague-Dawley rat at 10 mg/kg, iv; format: ADME, organism-based; parameters: dose 10 mg/kg, route intravenous; details: in vivo
[2] = Tmax in Sprague-Dawley rat at 10 mg/kg, po; format: ADME, organism-based; parameters: dose 10 mg/kg, route oral; details: in vivo
[3] = AUC (0 to infinity) in Sprague-Dawley rat at 10 mg/kg, po; format: ADME, organism-based; parameters: time infinity, dose 10 mg/kg, route oral; details: plasma
[4] = AUC (0 to infinity) in Sprague-Dawley rat at 10 mg/kg, iv; format: ADME, organism-based; parameters: time infinity, dose 10 mg/kg, route intravenous; details: plasma
[5] = Half life in Sprague-Dawley rat at 10 mg/kg, po; format: ADME, organism-based; parameters: dose 10 mg/kg, route oral; details: in vivo
[6] = Oral bioavailability in Sprague-Dawley rat at 10 mg/kg; format: ADME, organism-based; details: in vivo
[7] = Clearance in Sprague-Dawley rat at 10 mg/kg, iv; format: ADME, organism-based; parameters: dose 10 mg/kg, route intravenous; details: in vivo
[8] = Permeability from basal to apical side across human Caco2 cells; format: ADME, cell-based; details: Caco-2, read-out: permeability
Plasma [9] = assay: Half life in human plasma assessed as around 50% of prodrug is remaining; format: ADME, cell-free
[10] = Half life in buffer at pH 9 assessed as prodrug conversion; format: physicochemical
[11] = Half life in buffer at pH 7.4 assessed as prodrug conversion; format: physicochemical
Plasma [12] = assay: Half life in rat plasma assessed as < 50% of prodrug is remaining; format: ADME, cell-free
[13] = Half life in buffer at pH 6 assessed as prodrug conversion; format: physicochemical
[14] = Permeability from apical to basal side across human Caco2 cells; format: ADME, cell-based; details: Caco-2, read-out: permeability
[15] = Half life in buffer at pH 4 assessed as prodrug conversion; format: physicochemical
Rattus norvegicus [16] = assay: Tmax in Sprague-Dawley rat assessed as VX166 level at 10 mg/kg, po; format: ADME, organism-based; parameters: dose 10 mg/kg, route oral; details: in vivo
Plasma [17] = assay: Half life in rat plasma assessed as < 10% of prodrug is remaining; format: ADME, cell-free
Plasma [18] = assay: Half life in human plasma assessed as < 50% of prodrug is remaining; format: ADME, cell-free
Rattus norvegicus [19] = assay: Oral bioavailability in Sprague-Dawley rat assessed as VX166 level at 10 mg/kg; format: ADME, organism-based; details: in vivo
Rattus norvegicus [20] = assay: AUC (0 to infinity) in Sprague-Dawley rat assessed as VX166 level in plasma at 10 mg/kg, po; format: ADME, organism-based; parameters: time infinity, dose 10 mg/kg, route oral; details: in vivo
Rattus norvegicus [21] = assay: Half life in Sprague-Dawley rat assessed as prodrug conversion to VX166 at 10 mg/kg, po; format: ADME, organism-based; parameters: dose 10 mg/kg, route oral; details: in vivo

Papp B→A [8] [×10⁻⁶ cm/s] | t1/2 (Plasma [9]) [min] | t1/2 [10] [min] | t1/2 [11] [min] | t1/2 [13] [min] | Papp A→B [14] [×10⁻⁶ cm/s] | t1/2 [15] [min] | t1/2 (Plasma [17]) [min] | Compound | other results
– | – | – | – | – | – | – | – | CC[C@@H](C(=O)N[C@@H](CC(=O)O)C(=O)COc1c(F)c(F)cc(F)c1F)n1cccc(NC(=O)OC)c1=O | half-life [1]: 31.8 min; Tmax [2]: 19.8 min; AUC(0-inf) [3]: 860 ng·h/mL; AUC(0-inf) [4]: 6160 ng·h/mL; half-life [5]: 91.8 min; bioavailability [6]: 14%; clearance [7]: 22.3 mL/min/kg
10 | 1 | 438 | 1780 | 1490 | 0.5 | 72 | – | C[C@H](NC(=O)C(=O)Nc1ccccc1C(C)(C)C)C1=N[C@H]2CC(=O)O[C@@]2(COc2c(F)c(F)cc(F)c2F)O1 | t1/2 (Plasma [12]): < 1 min
– | – | 42 | 192 | 522 | – | 108 | < 1 | CC[C@@H](C1=N[C@H]2CC(=O)O[C@@]2(COc2c(F)c(F)cc(F)c2F)O1)n1cccc(NC(=O)OC)c1=O | Tmax (Rattus norvegicus [16]): 37.8 min; t1/2 (Plasma [18]): < 1 min; F (Rattus norvegicus [19]): 27%; AUC (Rattus norvegicus [20]): 1660 ng·h/mL; t1/2 (Rattus norvegicus [21]): 58.2 min
– | 1 | 48 | 240 | 792 | – | 864 | < 1 | O=C1C[C@@H]2N=C(c3cccc4ccccc34)O[C@]2(CF)O1 | –
10 | – | – | – | – | 0.5 | – | – | C[C@H](NC(=O)C(=O)Nc1ccccc1C(C)(C)C)C(=O)N[C@@H](CC(=O)O)C(=O)COc1c(F)c(F)cc(F)c1F [EMRICASAN] | –
